From PubChem BioAssay AID330 (DTP/NCI, 2004)
“And” between values parts separate entries of the source, which are not always exact repeats. Equal values may be shown once. Toxic doses and inconclusive results are not listed. Rule for the calls: active = survival T/C of 150% or more; inactive = T/C below 125% in these data.

Tested on: P388 leukemia ip, CD2F1 mice, survival T/C
Assay: NCI In Vivo Anticancer Drug Screen. Data for tumor model P388 Leukemia (intraperitoneal) in CD2F1 (CDF1) mice
Conditions: endpoint: median survival time, higher = longer survival
Method in brief: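 Mice carrying the transplanted tumor received test compound or vehicle. Survival was recorded in each group, and the value is the treated-group measurement divided by that of the vehicle-treated control group.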

[1] = dose: 60.0 mg/kg/injection, schedule: Q01DX005 (ip), vehicle: saline with Tween-80
[2] = dose: 120.0 mg/kg/injection, schedule: Q01DX005 (ip), vehicle: saline with Tween-80
[3] = dose: 50.0 mg/kg/injection, schedule: Q01DX009 (ip), vehicle: saline with Tween-80
[4] = dose: 100.0 mg/kg/injection, schedule: Q01DX009 (ip), vehicle: Klucel (hydroxypropylcellulose) (HPC)
[5] = dose: 200.0 mg/kg/injection, schedule: Q01DX009 (ip), vehicle: Klucel (hydroxypropylcellulose) (HPC)
[6] = dose: 50.0 mg/kg/injection, schedule: Q01DX009 (ip), vehicle: saline
[7] = dose: 100.0 mg/kg/injection, schedule: Q01DX009 (ip), vehicle: saline
[8] = dose: 200.0 mg/kg/injection, schedule: Q01DX009 (ip), vehicle: saline
[9] = dose: 6.25 mg/kg/injection, schedule: Q01DX009 (ip), vehicle: water
[10] = dose: 12.5 mg/kg/injection, schedule: Q01DX009 (ip), vehicle: water
[11] = dose: 50.0 mg/kg/injection, schedule: Q01DX005 (ip), vehicle: saline with Tween-80
[12] = dose: 100.0 mg/kg/injection, schedule: Q01DX005 (ip), vehicle: saline with Tween-80
[13] = dose: 6.25 mg/kg/injection, schedule: Q01DX005 (ip), vehicle: Klucel (hydroxypropylcellulose) (HPC)
[14] = dose: 12.5 mg/kg/injection, schedule: Q01DX005 (ip), vehicle: Klucel (hydroxypropylcellulose) (HPC)
[15] = dose: 25.0 mg/kg/injection, schedule: Q01DX005 (ip), vehicle: Klucel (hydroxypropylcellulose) (HPC)
[16] = dose: 50.0 mg/kg/injection, schedule: Q01DX005 (ip), vehicle: Klucel (hydroxypropylcellulose) (HPC)
[17] = dose: 100.0 mg/kg/injection, schedule: Q01DX005 (ip), vehicle: Klucel (hydroxypropylcellulose) (HPC)

Measured: T/C

COc1cc(C2c3c(oc4ccccc4c3=O)Oc3oc4ccccc4c(=O)c32)cc(OC)c1OC
inactive: [1] 86 % of control | [2] 87 % of control

NCCCCCC(CCN)SCC1OC(n2cnc3c(N)ncnc32)C(O)C1O (configuration not stated)
inactive: dose: 15.0 mg/kg/injection, schedule: Q01DX005 (ip), vehicle: saline with Tween-80 109 % of control | dose: 30.0 mg/kg/injection, schedule: Q01DX005 (ip), vehicle: saline with Tween-80 103 % of control | [1] 96 % of control

Cc1ccccc1/C=N\N1C(=O)C(C)SC1c1ccccc1C (configuration not stated)
inactive: [3] 91 % of control | dose: 100.0 mg/kg/injection, schedule: Q01DX009 (ip), vehicle: saline with Tween-80 93 % of control

CNC(=S)NNC1=NC(=S)NC1(C)C
inactive: [6] 98 % of control | [7] 103 % of control | [8] 101 % of control

O=NNc1nccs1
inactive: dose: 1.56 mg/kg/injection, schedule: Q01DX009 (ip), vehicle: water 96 % of control | dose: 3.12 mg/kg/injection, schedule: Q01DX009 (ip), vehicle: water 100 % of control | [9] 99 % of control | [10] 97 % of control

Cc1[nH]nc2c1NC(=O)OCC2
inactive: [11] 101 % of control | [12] 101 % of control | dose: 200.0 mg/kg/injection, schedule: Q01DX005 (ip), vehicle: saline with Tween-80 101 % of control

CC(C)CC(NC(=O)OCc1ccccc1)C(=O)O (configuration not stated)
inactive: [11] 105 % of control | [12] 101 % of control

CCOC(=O)C(=CNc1cccc2cccnc12)C(=O)OCC
inactive: dose: 100.0 mg/kg/injection, schedule: Q04DX002 (ip), vehicle: saline with Tween-80 97 % of control | dose: 200.0 mg/kg/injection, schedule: Q04DX002 (ip), vehicle: saline with Tween-80 99 % of control | dose: 400.0 mg/kg/injection, schedule: Q04DX002 (ip), vehicle: saline with Tween-80 99 % of control

O=C(O)C1CCC[N-]1.[Cl][Pd][Cl] (configuration not stated)
inactive: [9] 105 % of control | [10] 96 % of control | dose: 25.0 mg/kg/injection, schedule: Q01DX009 (ip), vehicle: water 100 % of control | dose: 50.0 mg/kg/injection, schedule: Q01DX009 (ip), vehicle: water 114 % of control | dose: 100.0 mg/kg/injection, schedule: Q01DX009 (ip), vehicle: water 93 % of control

COc1ccccc1N=Nc1cc(S(=O)(=O)O)c2ccccc2c1O
inactive: dose: 25.0 mg/kg/injection, schedule: Q01DX009 (ip), vehicle: saline 89 % of control | [6] 97 % of control | [7] 100 % of control and 117 % of control | [8] 91 % of control

COc1ccc2c(oc(=O)c3c(Cl)nc(C)c(C)c32)c1OC
inactive: dose: 12.5 mg/kg/injection, schedule: Q01DX009 (ip), vehicle: Klucel (hydroxypropylcellulose) (HPC) 98 % of control | dose: 12.5 mg/kg/injection, schedule: Q04DX003 (ip), vehicle: Klucel (hydroxypropylcellulose) (HPC) 100 % of control | dose: 25.0 mg/kg/injection, schedule: Q01DX009 (ip), vehicle: Klucel (hydroxypropylcellulose) (HPC) 98 % of control | dose: 25.0 mg/kg/injection, schedule: Q04DX003 (ip), vehicle: Klucel (hydroxypropylcellulose) (HPC) 102 % of control | dose: 50.0 mg/kg/injection, schedule: Q01DX009 (ip), vehicle: Klucel (hydroxypropylcellulose) (HPC) 98 % of control | dose: 50.0 mg/kg/injection, schedule: Q04DX003 (ip), vehicle: Klucel (hydroxypropylcellulose) (HPC) 94 % of control | [4] 97 % of control | dose: 100.0 mg/kg/injection, schedule: Q04DX003 (ip), vehicle: Klucel (hydroxypropylcellulose) (HPC) 90 % of control | [5] 97 % of control | dose: 200.0 mg/kg/injection, schedule: Q04DX003 (ip), vehicle: Klucel (hydroxypropylcellulose) (HPC) 90 % of control

COc1cc(C(=O)OC2c3ccccc3CCC2N(C)C)cc(OC)c1OC (configuration not stated)
inactive: dose: 25.0 mg/kg/injection, schedule: Q01DX009 (ip), vehicle: saline with Tween-80 98 % of control | [3] 91 % of control

COC(=O)C(=O)C(C(=O)c1ccc(F)cc1)c1nc2n(c1O)C(=N)N=N2 (configuration not stated)
inactive: [1] 102 % of control | [2] 86 % of control

Cc1cccc[n+]1CC(=O)C[n+]1ccccc1C
inactive: dose: 50.0 mg/kg/injection, schedule: Q01DX005 (ip), vehicle: saline 95 % of control | dose: 100.0 mg/kg/injection, schedule: Q01DX005 (ip), vehicle: saline 101 % of control

C=C(Br)C(=NC(C)(C)C)Nc1ccccc1Cl
inactive: [13] 98 % of control | [14] 109 % of control | [15] 111 % of control and 120 % of control and 118 % of control | [16] 118 % of control | [17] 110 % of control

[N-]=[N+]=Nc1c2c(nc3ccccc13)CCCC2
inactive: [1] 103 % of control | [2] 105 % of control

O=[N+]([O-])c1cccc(C(Nc2nncs2)Nc2nncs2)c1
inactive: [16] 106 % of control and 96 % of control | [17] 95 % of control | dose: 200.0 mg/kg/injection, schedule: Q01DX005 (ip), vehicle: Klucel (hydroxypropylcellulose) (HPC) 94 % of control | dose: 400.0 mg/kg/injection, schedule: Q01DX005 (ip), vehicle: Klucel (hydroxypropylcellulose) (HPC) 96 % of control

COc1cc2c(=O)n(C)c3ccccc3c2cc1OC
inactive: dose: 25.0 mg/kg/injection, schedule: Q01DX009 (ip), vehicle: other 91 % of control | dose: 50.0 mg/kg/injection, schedule: Q01DX009 (ip), vehicle: other 90 % of control | dose: 100.0 mg/kg/injection, schedule: Q01DX009 (ip), vehicle: other 91 % of control | dose: 200.0 mg/kg/injection, schedule: Q01DX009 (ip), vehicle: other 93 % of control | dose: 400.0 mg/kg/injection, schedule: Q01DX009 (ip), vehicle: other 99 % of control

CCC1=C(C)c2cc3[n-]c(cc4nc(cc5[n-]c(cc1n2)c(C)c5CCC(=O)OC)C(CCC(=O)OC)=C4C)c(C)c3CC.[Ni+2]
inactive: dose: 18.75 mg/kg/injection, schedule: Q01DX009 (ip), vehicle: saline with Tween-80 87 % of control | dose: 37.5 mg/kg/injection, schedule: Q01DX009 (ip), vehicle: saline with Tween-80 87 % of control | dose: 75.0 mg/kg/injection, schedule: Q01DX009 (ip), vehicle: saline with Tween-80 94 % of control

COc1ccc(C2c3cc4c(cc3OC(C)(OC)C2C)OCO4)cc1 (configuration not stated)
inactive: [13] 95 % of control | [14] 87 % of control | [15] 87 % of control
